Activity calls are given as the source filed them. No cut-off for these calls is given here.
B1: DNA topoisomerase 2-alpha (Homo sapiens), P11388 (protein)
chain: MEVSPLQPVNENMQVNKIKKNEDAKKRLSVERIYQKKTQLEHILLRPDTYIGSVELVTQQMWVYDEDVGINYREVTFVPGLYKIFDEILVNAADNKQRDPKMSCIRVTIDPENNLISIWNNGKGIPVVEHKVEKMYVPALIFGQLLTSSNYDDDEKKVTGGRNGYGAKLCNIFSTKFTVETASREYKKMFKQTWMDNMGRAGEMELKPFNGEDYTCITFQPDLSKFKMQSLDKDIVALMVRRAYDIAGSTKDVKVFLNGNKLPVKGFRSYVDMYLKDKLDETGNSLKVIHEQVNHRWEVCLTMSEKGFQQISFVNSIATSKGGRHVDYVADQIVTKLVDVVKKKNKGGVAVKAHQVKNHMWIFVNALIENPTFDSQTKENMTLQPKSFGSTCQLSEKFIKAAIGCGIVESILNWVKFKAQVQLNKKCSAVKHNRIKGIPKLDDANDAGGRNSTECTLILTEGDSAKTLAVSGLGVVGRDKYGVFPLRGKILNVREASHKQIMENAEINNIIKIVGLQYKKNYEDEDSLKTLRYGKIMIMTDQDQDGSHIKGLLINFIHHNWPSLLRHRFLEEFITPIVKVSKNKQEMAFYSLPEFEEWKSSTPNHKKWKVKYYKGLGTSTSKEAKEYFADMKRHRIQFKYSGPEDDAAISLAFSKKQIDDRKEWLTNFMEDRRQRKLLGLPEDYLYGQTTTYLTYNDFINKELILFSNSDNERSIPSMVDGLKPGQRKVLFTCFKRNDKREVKVAQLAGSVAEMSSYHHGEMSLMMTIINLAQNFVGSNNLNLLQPIGQFGTRLHGGKDSASPRYIFTMLSSLARLLFPPKDDHTLKFLYDDNQRVEPEWYIPIIPMVLINGAEGIGTGWSCKIPNFDVREIVNNIRRLMDGEEPLPMLPSYKNFKGTIEELAPNQYVISGEVAILNSTTIEISELPVRTWTQTYKEQVLEPMLNGTEKTPPLITDYREYHTDTTVKFVVKMTEEKLAEAERVGLHKVFKLQTSLTCNSMVLFDHVGCLKKYDTVLDILRDFFELRLKYYGLRKEWLLGMLGAESAKLNNQARFILEKIDGKIIIENKPKKELIKVLIQRGYDSDPVKAWKEAQQKVPDEEENEESDNEKETEKSDSVTDSGPTFNYLLDMPLWYLTKEKKDELCRLRNEKEQELDTLKRKSPSDLWKEDLATFIEELEAVEAKEKQDEQVGLPGKGGKAKGKKTQMAEVLPSPRGQRVIPRITIEMKAEAEKKNKKKIKNENTEGSPQEDGVELEGLKQRLEKKQKREPGTKTKKQTTLAFKPIKKGKKRNPWSDSESDRSSDESNFDVPPRETEPRRAATKTKFTMDLDSDEDFSDFDEKTDDEDFVPSDASPPKTKTSPKLSNKELKPQKSVVSDLEADDVKGSVPLSSSPPATHFPDETEITNPVPKKNVTVKKTAAKSQSSTSTTGAKKRAAPKGTKRDPALNSGVSQKPDPAKTKNRRKRKPSTSDDSDSNFEKIVSKAVTSKKSKGESDDFHMDFDSAVAPRAKSVRAKKPIKYLEESDEDDLF

How the values were obtained:
[1] = biological target: T1, DNA topoisomerase 2-alpha (Homo sapiens, UniProt P11388); assay: Inhibition of human topoisomerase 2alpha-mediated relaxation of supercoiled pSG483 DNA at 12.5 to 200 uM after 30 mins by ethidium bromide staining based agarose gel electrophoresis method
[2] = biological target: T2, DNA topoisomerase 2-beta (Homo sapiens, UniProt Q02880); assay: Inhibition of human topoisomerase 2beta-mediated relaxation of supercoiled pSG483 DNA at 12.5 to 200 uM after 30 mins by ethidium bromide staining based agarose gel electrophoresis method
T2 sequence (Q02880 whole entry): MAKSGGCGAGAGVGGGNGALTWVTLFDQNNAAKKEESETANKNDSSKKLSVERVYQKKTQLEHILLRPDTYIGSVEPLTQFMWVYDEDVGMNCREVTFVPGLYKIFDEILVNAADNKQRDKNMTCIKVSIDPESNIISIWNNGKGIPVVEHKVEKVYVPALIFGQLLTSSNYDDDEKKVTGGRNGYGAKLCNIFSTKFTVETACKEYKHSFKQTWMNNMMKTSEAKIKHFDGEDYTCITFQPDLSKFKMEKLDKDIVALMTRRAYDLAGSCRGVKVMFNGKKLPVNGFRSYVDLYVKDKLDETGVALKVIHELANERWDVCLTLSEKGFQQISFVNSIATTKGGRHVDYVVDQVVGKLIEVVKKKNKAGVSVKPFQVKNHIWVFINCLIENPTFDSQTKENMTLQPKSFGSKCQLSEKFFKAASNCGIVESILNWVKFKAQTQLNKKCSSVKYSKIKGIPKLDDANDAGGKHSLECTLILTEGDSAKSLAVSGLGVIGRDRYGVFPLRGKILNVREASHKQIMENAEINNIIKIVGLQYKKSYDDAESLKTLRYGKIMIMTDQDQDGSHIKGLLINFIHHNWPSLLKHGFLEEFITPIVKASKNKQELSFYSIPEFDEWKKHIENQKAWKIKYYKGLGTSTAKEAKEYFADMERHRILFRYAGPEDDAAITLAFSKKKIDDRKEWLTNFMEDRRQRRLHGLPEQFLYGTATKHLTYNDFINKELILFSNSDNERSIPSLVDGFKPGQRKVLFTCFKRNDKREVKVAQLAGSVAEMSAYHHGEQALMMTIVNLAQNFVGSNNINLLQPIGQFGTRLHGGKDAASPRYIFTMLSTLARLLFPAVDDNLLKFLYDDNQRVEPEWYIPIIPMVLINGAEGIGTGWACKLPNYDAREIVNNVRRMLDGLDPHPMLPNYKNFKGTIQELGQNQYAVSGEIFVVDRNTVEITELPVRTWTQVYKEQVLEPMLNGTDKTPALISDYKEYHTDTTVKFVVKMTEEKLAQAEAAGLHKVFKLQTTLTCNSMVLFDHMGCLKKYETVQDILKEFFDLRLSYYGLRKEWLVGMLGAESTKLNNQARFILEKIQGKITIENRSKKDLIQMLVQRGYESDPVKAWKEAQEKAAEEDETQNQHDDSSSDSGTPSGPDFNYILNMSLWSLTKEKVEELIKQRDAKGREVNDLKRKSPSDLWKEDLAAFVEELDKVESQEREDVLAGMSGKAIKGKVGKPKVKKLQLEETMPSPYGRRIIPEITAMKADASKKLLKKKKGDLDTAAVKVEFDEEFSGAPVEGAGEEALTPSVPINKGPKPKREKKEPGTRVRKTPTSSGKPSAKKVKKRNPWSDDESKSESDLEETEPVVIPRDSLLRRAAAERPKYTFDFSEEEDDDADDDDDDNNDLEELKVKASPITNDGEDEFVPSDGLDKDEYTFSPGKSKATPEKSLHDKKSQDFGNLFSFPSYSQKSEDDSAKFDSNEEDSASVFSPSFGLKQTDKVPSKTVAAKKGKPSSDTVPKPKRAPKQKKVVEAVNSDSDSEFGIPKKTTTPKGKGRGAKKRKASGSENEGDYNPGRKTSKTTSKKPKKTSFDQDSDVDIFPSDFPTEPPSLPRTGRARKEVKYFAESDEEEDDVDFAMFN

[3] = biological target: T2, DNA topoisomerase 2-beta; assay: Inhibition of human topoisomerase 2beta-mediated DNA cleavage assessed as formation of nicking in DNA at 200 uM using supercoiled pSG483 as substrate after 30 mins by ethidium bromide based gel electrophoresis method
[4] = biological target: T1, DNA topoisomerase 2-alpha; assay: Inhibition of human topoisomerase 2alpha-mediated DNA cleavage at 12.5 to 200 uM using supercoiled pSG483 as substrate after 30 mins by ethidium bromide staining based gel electrophoresis method
[5] = biological target: T2, DNA topoisomerase 2-beta; assay: Inhibition of human topoisomerase 2beta-mediated DNA cleavage at 12.5 to 200 uM using supercoiled pSG483 as substrate after 30 mins by ethidium bromide staining based gel electrophoresis method
[6] = biological target: T1, DNA topoisomerase 2-alpha; assay: (§1) Mixed-type inhibition of topoisomerase 2alpha ATPase activity (unknown origin) assessed as apparent Vmax per mg protein at 20 uM using salmon sperm DNA as substrate measured every 30 secs for 90 mins in presence of ATP by pyruvate kinase/lactate dehydrogenase enzyme coupled assay (reference value: 136.7 +/- 14.7 mM/min)
[7] = biological target: T1, DNA topoisomerase 2-alpha; assay: Inhibition of human topoisomerase 2alpha-mediated relaxation of supercoiled pSG483 DNA after 30 mins by ethidium bromide staining based agarose gel electrophoresis method
[8] = biological target: T2, DNA topoisomerase 2-beta; assay: Inhibition of human topoisomerase 2beta-mediated relaxation of supercoiled pSG483 DNA after 30 mins by ethidium bromide staining based agarose gel electrophoresis method
[9] = biological target: T1, DNA topoisomerase 2-alpha; assay: Poison activity at human topoisomerase 2alpha assessed as linear DNA formation at 12.5 to 200 uM after 30 mins by ethidium bromide staining based agarose gel electrophoresis method
[10] = test system: DNA; assay: Induction of plasmid DNA (unknown origin) intercalation at 7.81 to 500 uM after 30 mins by ethidium bromide staining based agarose gel electrophoresis method; format: nucleic-acid assay
[11] = biological target: T1, DNA topoisomerase 2-alpha; assay: as §1, with “25” for “20”
[12] = biological target: T1, DNA topoisomerase 2-alpha; assay: as §1, with “50” for “20”
[13] = compound: C=C(C)[C@H](CC=C(C)C)C[C@]12C[C@H](CC=C(C)C)C(C)(C)[C@](CC=C(C)C)(C(=O)C(C(=O)c3ccc(O)c(O)c3)=C1O)C2=O; assay: (§2) Mixed-type inhibition of topoisomerase 2alpha ATPase activity (unknown origin) assessed as apparent Km at 10 uM using salmon sperm DNA as substrate measured every 30 secs for 90 mins in presence of ATP by pyruvate kinase/lactate dehydrogenase enzyme coupled assay (reference value: 0.4 +/- 0.1 mM); conditions: Homo sapiens
[14] = compound: CC(C)=CCC/C(C)=C/C[C@@]12C[C@H](CC=C(C)C)C(C)(C)[C@@](CC=C(C)C)(C(=O)C(C(=O)c3ccc(O)c(O)c3)=C1O)C2=O; assay: as §2; conditions: Homo sapiens
[15] = compound: CC(C)=CCC[C@@]1(C)[C@H](CC=C(C)C)C[C@]2(CC=C(C)C)C(=O)[C@@]1(CC=C(C)C)C(=O)C(C(=O)c1ccc(O)c(O)c1)=C2O; assay: as §2; conditions: Homo sapiens
[16] = compound: C=C(C)[C@H](CC=C(C)C)C[C@]12C[C@H](CC=C(C)C)C(C)(C)[C@](CC=C(C)C)(C(=O)C(C(=O)c3ccc(O)c(O)c3)=C1O)C2=O; assay: (§3) Mixed-type inhibition of topoisomerase 2alpha ATPase activity (unknown origin) assessed as apparent Km at 25 uM using salmon sperm DNA as substrate measured every 30 secs for 90 mins in presence of ATP by pyruvate kinase/lactate dehydrogenase enzyme coupled assay (reference value: 0.4 +/- 0.1 mM); conditions: Homo sapiens
[17] = compound: CC(C)=CCC[C@@]1(C)[C@H](CC=C(C)C)C[C@]2(CC=C(C)C)C(=O)[C@@]1(CC=C(C)C)C(=O)C(C(=O)c1ccc(O)c(O)c1)=C2O; assay: as §3; conditions: Homo sapiens
[18] = compound: C=C(C)[C@H](CC=C(C)C)C[C@]12C[C@H](CC=C(C)C)C(C)(C)[C@](CC=C(C)C)(C(=O)C(C(=O)c3ccc(O)c(O)c3)=C1O)C2=O; assay: Mixed-type inhibition of topoisomerase 2alpha ATPase activity (unknown origin) assessed as apparent Km at 50 uM using salmon sperm DNA as substrate measured every 30 secs for 90 mins in presence of ATP by pyruvate kinase/lactate dehydrogenase enzyme coupled assay (reference value: 0.4 +/- 0.1 mM); conditions: Homo sapiens
[19] = compound: CC(C)=CCC/C(C)=C/C[C@@]12C[C@H](CC=C(C)C)C(C)(C)[C@@](CC=C(C)C)(C(=O)C(C(=O)c3ccc(O)c(O)c3)=C1O)C2=O; assay: (§4) Mixed-type inhibition of topoisomerase 2alpha ATPase activity (unknown origin) assessed as apparent Km at 5 uM using salmon sperm DNA as substrate measured every 30 secs for 90 mins in presence of ATP by pyruvate kinase/lactate dehydrogenase enzyme coupled assay (reference value: 0.4 +/- 0.1 mM); conditions: Homo sapiens
[20] = compound: CC(C)=CCC[C@@]1(C)[C@H](CC=C(C)C)C[C@]2(CC=C(C)C)C(=O)[C@@]1(CC=C(C)C)C(=O)C(C(=O)c1ccc(O)c(O)c1)=C2O; assay: as §4; conditions: Homo sapiens
[21] = compound: CC(C)=CCC/C(C)=C/C[C@@]12C[C@H](CC=C(C)C)C(C)(C)[C@@](CC=C(C)C)(C(=O)C(C(=O)c3ccc(O)c(O)c3)=C1O)C2=O; assay: Mixed-type inhibition of topoisomerase 2alpha ATPase activity (unknown origin) assessed as apparent Km at 20 uM using salmon sperm DNA as substrate measured every 30 secs for 90 mins in presence of ATP by pyruvate kinase/lactate dehydrogenase enzyme coupled assay (reference value: 0.4 +/- 0.1 mM); conditions: Homo sapiens

Molecule | inhibition [1] | inhibition [2] | inhibition [4] | inhibition [5] | other results
CC(C)=CCC/C(C)=C/C[C@]12C[C@H](CC=C(C)C)C(C)(C)[C@](CC=C(C)C)(C1=O)c1oc3cc(O)c(O)cc3c(=O)c1C2=O | Active | Active | – | – | inhibition [3]: inactive
CC(C)=CCC/C(C)=C/C[C@@]12C[C@H](CC=C(C)C)C(C)(C)[C@@](CC=C(C)C)(C(=O)C(C(=O)c3ccc(O)c(O)c3)=C1O)C2=O | Active | Active | Active | Active | Vmax(app) [6]: 53.6 mM/min
CC(C)=CCC[C@@]1(C)[C@H](CC=C(C)C)C[C@@]2(CC=C(C)C)C(=O)c3c(oc4cc(O)c(O)cc4c3=O)[C@]1(CC=C(C)C)C2=O | Active | Active | Active | Active | –
CC(C)=CCC[C@@]1(C)[C@H](CC=C(C)C)C[C@]2(CC=C(C)C)C(=O)[C@@]1(CC=C(C)C)C(=O)c1c2oc2cc(O)c(O)cc2c1=O | Active | Active | Active | Active | –
C=C(C)[C@H](CC=C(C)C)C[C@]12C[C@H](CC=C(C)C)C(C)(C)[C@](CC=C(C)C)(C(=O)C(C(=O)c3ccc(O)c(O)c3)=C1O)C2=O | – | – | – | – | IC50 [7]: 101 µM; IC50 [8]: 101 µM; Activity [9]: inactive; Activity [10]: inactive; Vmax(app) [11]: 94 mM/min; Vmax(app) [12]: 84.7 mM/min
CC(C)=CCC[C@@]1(C)[C@H](CC=C(C)C)C[C@]2(CC=C(C)C)C(=O)[C@@]1(CC=C(C)C)C(=O)C(C(=O)c1ccc(O)c(O)c1)=C2O | Active | Active | Active | Active | Vmax(app) [11]: 93 mM/min
B1 | – | – | – | – | Km [13]: 300 µM; Km [14]: 900 µM; Km [15]: 800 µM; Km [16]: 700 µM; Km [17]: 1000 µM; Km [18]: 800 µM; Km [19]: 600 µM; Km [20]: 600 µM; Km [21]: 1600 µM

Source: ChEMBL document CHEMBL4334509, “Garcinol and Related Polyisoprenylated Benzophenones as Topoisomerase II Inhibitors: Biochemical and Molecular Modeling Studies” (J Nat Prod, 2019)
